# Assays:
# [1] = test system: MCF-7, T47D and MDA-MB-468 cells; experiment: Cell proliferation by Alamar blue reduction, breast adenocarcinoma cultures; format: cell-based, human; parameters: anti-proliferative effect: dose or concentration left out as unconfirmed; conditions: for anti-proliferative effect: 4 days; for inhibition of cell proliferation: after 4 days of treatment, six drug concentrations
# Source text: In vitro cell proliferation was quantitated by Alamar blue reduction. The anti-proliferative effects of six drug concentrations of the indicated drugs were quantitated after 4 days of treatment.
# [2] = test system: MDA-MB-468 (GFP-LC3) cells; experiment: GFP-LC3 punctae (autophagosome formation) microscopy assay; format: cell-based, human; conditions: for GFP-LC3 punctae per cell: drug concentrations up to 100 μM; for EC50: Homo sapiens, MDA-MB-468, 24 hours of treatment, read-out: potency (EC50±S.E.M.) of autophagosome formation (GFP-LC3 punctae); for concentration at which precipitous cell death occurred: following 24 hours of treatment
# Procedure: The human GFP-LC3 expression plasmid, pEGFP-LC3 (a gift from Drs. Grazia Ambrosini and Gary K. Schwartz, MSKCC), was stably transfected into MDA-MB-468 and selected with 0.5 mg/ml G418 sulfate. Stable populations were generated and compared to parental MDA-MB-468 for Sigma1 expression and autophagic and growth inhibitory response to Sigma ligands. GFP-LC3 translocation (punctae formation) was assessed by microscopy in MDA-MB-468 (GFP-LC3) stable cell populations. For microscopy-based experiments, cells were seeded onto Lab-Tek II glass chamber slides (Nalge Nunc International). […] Images of GFP-LC3 punctae were acquired with a Zeiss Axioplan 2 Imaging widefield microscope using Axiovision LE software. Punctae were counted using the spot quantitation program in the Fluoro-Chem software package (Alpha Innotech) and confirmed in parallel by manual counting. Autophagosome formation in MDAMB-468 (GFP-LC3) cells was quantitated as the mean number of GFP-LC3 punctae per GFP positive cell.
# Initially, an established immunoblot-based assay to detect microtubule associated protein light chain 3 (LC3) lipidation was used to test for the activation of autophagy. […] Since transient transfections can produce spurious GFP-LC3 aggregates, stable GFP-LC3 transfected populations of MDA-MB-468 (GFP-LC3) were generated. […]
# [3] = test system: T47D and MDA-MB-468 cells; experiment: Cell cycle profile (G1, S, G2 phase cells); format: cell-based, human; conditions: 24 hours; IPAG 1 μM (T47D) or 10 μM (MDA-MB-468); (+)-SKF-10047 10 μM
# Procedure: FIG. 30, comprising FIGS. 30A-30B, illustrates that Sigma1 antagonists mediate cell cycle arrest. […] FIG. 30A is a graph illustrating the percentage of G1, S, and G2 phase cells in T47D cells treated for 24 hours with DMSO (vehicle control), 1 μM IPAG (Sigma1 antagonist), or 10 μM (+)SKF-10047 (Sigma1 agonist). FIG. 30 B is a graph illustrating the percentage of G1, S, and G2 phase cells in MDA-MB-468 cells treated for 24 hours with DMSO (vehicle control), 10 μM IPAG (Sigma1 antagonist), or 10 μM (+)-SKF-10047 (Sigma1 agonist).
# [4] = test system: MDA-MB-468 breast tumor cells; experiment: Akt, S6K and ERK phosphorylation immunoblots; format: cell-based, human; conditions: 10 μM, 24 hours
# Procedure: FIG. 40, comprising FIGS. 40A-40C, illustrates Sigma1 antagonist modulation of Akt, S6K, and ERK phosphorylation. MDA-MB-468 breast tumor cells were treated for 24 hours with 10 μM IPAG (Sigma1 antagonist) or (+)SKF-10047 (SKF, Sigma1 agonist). Treated cells were harvested and cellular proteins were extracted with a buffer containing 1% Sodium Dodecyl Sulfate (SDS) and deoxycholate (DOC), supplemented with phosphatase and protease inhibitors. FIG. 40A is an image of an immunoblot illustrating Akt phosphorylation. […] Akt phosphorylation at threonine 308 was not altered in any of the samples (not shown). Equivalent loading was confirmed with an anti-GAPDH antibody. FIG. 40B is an image of an immunoblot illustrating phosphorylation. Phosphorylation of mTOR substrate, p70S6K at threonine 389 decreased 3-fold in IPAG, but not SKF treated cells. Total p70S6K was immunoblotted as a loading control. FIG. 40C is an immunoblot illustrating that p44/42 ERK1/2phosphorylation at threonine 202 and tyrosine 204 was abrogated by 24 hour treatment with IPAG. Data shown is representative of two independent experiments.
# [5] = test system: T-47D breast adenocarcinoma cells; experiment: Cell size by flow cytometry (mean FSC-H, G1 phase); format: cell-based, human; conditions: 10 μM, 24 hours; control 412±5
# Procedure: FIG. 31A is a differential interference contrast (DIC) image of MDA-MB-468 breast adenocarcinoma cells treated for ˜20 hours with DMSO (drug vehicle control), 10 μM IPAG (antagonist) or 10 μM PRE084 (agonist). A twenty-micron bar is shown in each image. Data are presented as mean±SEM. FIG. 31B is a graph illustrating the finding that IPAG diminished the mean cell size (FSC-H) of MDA-MB-468 breast tumor cells in a time-responsive manner. The mean FSC-H of 370±5 at to decreased to 323±4 after 24 hours of IPAG treatment and to 267±2 after 48 hours of treatment. Two-tailed t-tests were performed to determine statistical significance. For IPAG treatment compared to control (DMSO) and Sigma agonists (SKF and PRE084), P=0.0002 at d1 and P=0.00013 at d2. Data were generated from three to five independent determinations for each time-point. Flow cytometry was used to measure mean cell size (mean FSC-H) of T-47D breast adenocarcinoma cells. FIG. 31C is a bar graph illustrating T-47D cells treated for 24 hours with 10 μM indicated Sigma ligand. IPAG and BD 1047 (Sigma1 antagonists) diminished cell size from a mean FSC-H of 412±5 for control (DMSO) cells versus 341±7 and 381±8 for IPAG and BD1047 treated cells, respectively. […] Data represent 5 independent determinations (*P<0.05, ***P<0.001). FIG. 31D is a bar graph illustrating how IPAG (antagonist) decreases cell size in a dose responsive manner. T-47D were treated for 24 h with 1 and 10 μM IPAG, and mean FSC-H was measured. FIG. 31E is a graph illustrating that T47D cell size decreases over time. T-47D cells were treated for a total of 48 hours with 10 μM of the indicated Sigma ligands. […] Neither Sigma1 agonist, (+)-SKF10047 and PRE084, altered cell size. […] Two-tailed t-tests were performed to determine statistical significance. For IPAG treatment compared to control (DMSO) and Sigma1 agonists (SKF and PRE084), P=0.0002 at d1 and P<0.0001 at d2. For FIGS. 31B-31E, the mean FSC-H was determined for each cell cycle population (i.e., G1, S, G2/M), and data is shown for G1 phase cells. S and G2/M phase cells responded similarly (data not shown).
# [6] = test system: MDA-MB-468 cells; experiment: Cell death by trypan blue exclusion; format: cell-based, human; conditions: 3-MA alone (5 mM), 24 hours
# Procedure: Trypan blue exclusion and propidium iodide staining were used to quantify general cell death and the presence of apoptotic cell death was confirmed by immunoblot. The percentage of dead cells in a given population was determined by quantifying the number of trypan blue positive (dead) cells and dividing by the total number of trypan blue positive and negative cells.
# [7] = test system: MDA-MB-468 breast adenocarcinoma cells; experiment: LC3 lipidation (LC3II) immunoblot; format: cell-based, human; conditions: 10 μM, 24 hours
# Procedure: Cells were lysed and proteins extracted in a modified RIPA buffer (25 mM Tris-HCl pH 7.6, 150 mM NaCl, 1% NP-40, 1% sodium deoxycholate and 0.1% SDS) supplemented with 10% glycerol (volume/volume), complete protease inhibitor cocktail (Roche), and Halt phosphatase inhibitor cocktail (Pierce). Approximately 10-20 μg of detergent soluble protein were resolved on NOVEX 10-20% polyacrylamide Tris-glycine gels (InVitrogen). Immunoblots were performed in a 20 mM Tris-buffered 137 mM saline solution (pH 7.6) containing 0.1% Tween-20 (polyoxyethylene (20) sorbitan monolaurate) and 5% (weight/volume) blotting grade non-fat dry milk (BioRad). The Lumigen PS-3 enhanced chemiluminescence kit (GE Healthcare) was used to reveal immunoblotted proteins.
# Initially, an established immunoblot-based assay to detect microtubule associated protein light chain 3 (LC3) lipidation was used to test for the activation of autophagy. […] Since transient transfections can produce spurious GFP-LC3 aggregates, stable GFP-LC3 transfected populations of MDA-MB-468 (GFP-LC3) were generated. These cells were treated for 24 hours with increasing concentrations of Sigma receptor antagonists and agonists, and were compared to basal and DMSO treated controls (FIGS. 4B & 4C).
# [8] = test system: MCF7 tumor xenograft; experiment: MCF7 tumor xenograft, tamoxifen potentiation by rimcazole; format: in vivo, athymic mice; conditions: for inhibition of tumor growth: after 11 days of daily i.p. treatment, tamoxifen 1 mg/kg, Rimcazole 10 mg/kg, each alone
# Procedure: Preliminary tumor xenograft experiments were performed according to MSKCC Tumor Assessment Core facility protocol. Briefly, β-estradiol treated athymic mice were injected with MCF7 cells, and drug treatment was initiated when mean tumor volume reached approximately 140 mm^3, which occurred 17 days following MCF-7 injection. Daily i.p. drug injections were performed for up to 11 days, and tumor volume was quantified by the formula: tumor volume=L×W^2×π/6. In this pilot experiment, 3-5 mice were tested per group. […] An extended time course, with more mice per group and multiple drug doses, may be performed to determine whether the tumor growth inhibitory effect of combined drug treatment is additive or synergistic.
smiles,measurement,setting,value
"C=CCN1CC[C@]2(C)c3cc(O)ccc3C[C@H]1[C@H]2C (relative stereo) [(+)-SKF10047, [2S-(2α,6α,11R*]-1,2,3,4,5,6-hexahydro-6,11-dimethyl-3-(2-propenyl)-2,6-methano-3-benzazocin-8-ol]",anti-proliferative effect,[1],ineffective
same,GFP-LC3 punctae per cell,[2]; 24 hours,≤ 5±1 punctae per cell
same,cell cycle profile,[3],did not present significant difference in cell cycle profile
same,decrease of Akt phosphorylation at serine 473,[4],did not alter Akt phosphorylation
same,mean FSC-H (relative cell size),[5],did not alter cell size
"CC(C)=CCN1CC[C@]2(C)c3cc(O)ccc3C[C@H]1[C@H]2C (relative stereo) [(+)-pentazocine, (+)-[2S-(2,6,11R*)]-1,2,3,4,5,6-hexahydro-6,1-dimethyl-3-(3-methyl-2-butenyl)-2,6-methano-3-benzazocin-8-ol]",anti-proliferative effect,[1],ineffective
same,GFP-LC3 punctae per cell,[2]; 24 hours,≤ 6±1 punctae per cell
"CN(C)CCN(C)CCc1ccc(Cl)c(Cl)c1 [BD1047, N′-[2-(3,4-dichlorophenyl)ethyl]-N,N,N′-trimethylethane-1,2-diamine]",inhibition of cell proliferation,[1],also inhibited cell proliferation
same,mean FSC-H (relative cell size),[5],381±8
"CN1CCN(CCc2ccc(Cl)c(Cl)c2)CC1 [BD1063, 1-[2-(3,4-dichlorophenyl)ethyl]-4-methylpiperazine]",inhibition of cell proliferation,[1],also inhibited cell proliferation
"Cn1cnc(N)c2ncnc1-2 [Compound 3-MA, 3-methyladenine]",dead cells per well,[6],6±2%
same,punctae per cell,"[2]; 5 mM 3-MA alone, 24 hours",5±1 punctae per cell
"COc1cccc2c1CCCC2CCCN1CCN(C2CCCCC2)CC1 (centres unmarked) [PB28, 1-cyclohexyl-4-[3-(5-methoxy-1,2,3,4-tetra-hydronaphthalen-1-yl)propyl]piperazine]",conversion of LC3 to LC3II (autophagosome formation),[7],converted LC3 to LC3II
same,EC50,[2],52 ± 9 µM
same,concentration at which precipitous cell death occurred,[2],100 µM
"C[C@@H]1CN(CCCn2c3ccccc3c3ccccc32)C[C@H](C)N1 [rimcazole, 9-{3-[(3R,5S)-3,5-dimethylpiperazin-1-yl]propyl}-9H-carbazole]",inhibition of tumor growth,[8],approximately 50%
same,tumor growth,"[8]; tamoxifen (1 mg/kg) and Rimcazole (10 mg/kg) combined, 11 day time course",completely inhibited
same,inhibition of cell proliferation,[1],inhibited cell proliferation with comparable potencies in all cell lines
same,conversion of LC3 to LC3II (autophagosome formation),[7],converted LC3 to LC3II
same,EC50,[2],50 ± 8 µM
same,concentration at which precipitous cell death occurred,[2],100 µM
"CC/C(=C(\c1ccccc1)c1ccc(OCCN(C)C)cc1)c1ccccc1 [tamoxifen, (Z)-2-[4-(1,2-diphenylbut-1-enyl)phenoxy]-N,N-dimethylethanamine]",inhibition of tumor growth,[8],approximately 50%
same,inhibition of cell proliferation,[1],inhibited cell proliferation with similar potencies
